The subject of one series is B16 tumor. Briefly: Antitumor effect and weight change in mice bearing B16 tumor. It counts as in vivo, Nude Balb/C mice. The text has this: After 2 weeks, when the size of the tumors was 30-50 mm^3, the experiment began. […] From Day 0 to 18, the body weight of the mice in each group was weighed every two days. The size of the tumor was precisely measured with Vernier scale, where the method for calculating the volume of tumors was: V=(L×W×H)/2, (where L was the length of the tumor, W was the width of the tumor, H was the thickness of the tumor). The survival of the mice was observed continuously till the 45th day.

Series [1] can be described thus: Blood circulation of drug-loaded vesicles. To be noted: nude Balb/C, mouse, whole blood, intravenous, 10 mg/kg. The procedure:
The blood samples (approximately 10 μL) were collected at time points of 0, 0.25, 0.5, 1, 2, 4, 8, 12 and 24 h. The exact weight of the blood was determined through weighing by difference method, then 100 μL Triton (concentration: 1%) and 500 μL DMF (which contained 20 mM DTT, 1 M HCl) were added. The sample was subjected to extraction, followed by centrifugation (20,000 rpm, 20 min).

Series [2] is described as follows: Maximum tolerated dose (MTD). Particulars: nude Balb/C, mouse, in vivo. The text has this: Nude Balb/C mice with body weight of about 18-20 g, aged 4-6 weeks were used. […] The standard for MTD was non accidental death in mice or weight less than 15% in mice.
For the next series, the system named is tumor site. Briefly: CT imaging of nano-vesicles in mice (Example 20). It counts as in vivo. To be noted: tail vein, circulation after 40 minutes. The protocol:
By the changing CT value in FIG. 10 can be seen, after a 4 hour cycle, CT change of cRGD20/CLPs was the highest, followed by CLPs, and lowest in the control group, after 7 hours of circulation, CT value of cRGD20/CLPs is 2 times and 10 times than the other two groups.

By half-life is commonly meant the time in which the quantity being followed falls by half. Lower therefore signals rapid decline. A word on the MTD: it is the largest dose that counted as tolerated. Lower therefore signals poorer tolerability.

Structures can show the parent of a compound that is named as a salt.

`COc1cccc2c1C(=O)c1c(O)c3c(c(O)c1C2=O)C[C@@](O)(C(=O)CO)C[C@@H]3O[C@H]1C[C@H](N)[C@H](O)[C@H](C)O1` [DOX.HCl, doxorubicin hydrochloride]: the tumor growth result in the series with B16 tumor (DOX.HCl 10 mg/kg at 0, 4, 8, 12 day, 19-day treatment) is recorded as “may also inhibit tumor expansion”. This compound returned a body weight decrease in the series on B16 tumor (in 7 days, DOX.HCl 10 mg/kg) of 20%. In series [1], the half-life was 7.8 min. This compound displayed an MTD at 10 days in series [2] of under 10 mg/kg.
With `CC(=O)N(CC(O)CO)c1c(I)c(C(=O)NCC(O)CO)c(I)c(C(=O)NCC(O)CO)c1I` (centres unmarked) [iohexol], the “contrast signal in the bladder” value with tumor site is recorded as “contrast strong signal”.

The values are drawn from patent US10336720B2, “Cyclic carbonate monomer containing double iodine, biodegradable polymer prepared thereby and use” (SOOCHOW UNIVERSITY, priority 2015, dated 2019).
